{"source": "patent USRE35517E", "about": "“Method, compositions, and compounds for modulating brain excitability” (priority 1992, dated 1997)", "key": {"convulsions": {"tested_on": "convulsions", "assay": "Anticonvulsant screen (chemical convulsants and maximal electroshock), overall", "assay_type": "in vivo, mice", "conditions": "in comparison to clinically useful anticonvulsants, benzodiazepines", "description": "Experiments were also performed to determine the physiological relevance of these interactions by measuring the ability of the compounds of and used in the invention to modulate TBPS-induced convulsions in Swiss-Webster mice. […] The time to onset of myoclonus (presence of forelimb clonic activity) induced by TBPS was determined by observing each mouse of a period of 45 minutes. Significant differences between the time to onset in control mice vs. steroid-treated mice were determined by Student's t-test. […] The number of animals with tonic and/or clonic convulsions was recorded. In the maximal electroshock test, 50 mA of current at 60 Hz was delivered through corneal electrodes for 200 msec. […] The ED50 (the dose at which the half-maximal effect occurs) dose was determined for each screen."}, "rotorod performance [1]": {"tested_on": "rotorod performance", "assay": "Rotorod test (sedative potential)", "set-up": "ED50 RR (rotorod): unit not given beside the values", "conditions": "mice"}, "BZ receptor": {"tested_on": "BZ receptor", "assay": "Modulation of [3H]flunitrazepam binding in rat hippocampal homogenates, with pentobarbital (FIG. 3)", "conditions": "1.0 millimolar pentobarbital, 0.25 nM [3H]FLU, absence of GABA"}, "[2]": {"tested_on": "GABA/benzodiazepine receptor-chloride ionopore complex (GBR complex)", "assay": "Dissociation kinetics of [35S]TBPS in rat cerebral cortical membranes", "assay_type": "binding", "conditions": "for biphasic dissociation mechanism of [35S]TBPS: FIGS. 2A, 2B, pentobarbital 30 micromolar, alphaxalone 300 nanomolar, 5-alpha-pregnan-3-alpha-hydroxy-20-one 20 nanomolar; for t1/2, R (rapidly dissociating component) / t1/2, S (slowly dissociating component): 30 nM Na pentobarbital; for Total percentage of specific sites, R: rapidly dissociating component, Na pentobarbital (**P < 0.01 vs control); for Total percentage of specific sites, S: slowly dissociating component, Na pentobarbital (*P < 0.05 vs control)", "description": "An assay was performed to determine the effect of pentobarbital on the dissociation kinetics of [^35 S]TBPS in rat cerebral cortical membranes. This assay was performed in accordance with the procedures outlined above. […] Dissociation of bound [^35 ]TBPS was initiated by 2 micromolar TBPS in all cases."}, "Acute lethality (LD50)": {"assay": "Acute lethality (LD50)", "conditions": "mice; from therapeutic index"}, "[3]": {"tested_on": "GABA/benzodiazepine receptor-chloride ionopore complex (GBR complex)", "assay": "Modulation of [35S]TBPS binding in rat cerebral cortex P2 homogenate", "set-up": "species or system rat (male Sprague-Dawley)", "conditions": "for +5 μM IC50: inhibition of 2 nM [35S]TBPS binding, +5 μM (GABA); for +5 μM IC50 / CONTROL IC50: 25° C., 90 minutes; for CONTROL IC50: inhibition of basal 2 nM [35S]TBPS binding", "description": "These procedures were performed as follows:"}, "[4]": {"tested_on": "(+)bicuculline-induced seizures", "set-up": "key: NP: no protection", "conditions": "mice, cited from earlier work"}, "maximal electroshock": {"tested_on": "maximal electroshock", "set-up": "unit not given here", "conditions": "mice, cited from earlier work"}, "rotorod performance [5]": {"tested_on": "rotorod performance", "set-up": "unit not given beside the values", "conditions": "mice; data from Swinyard & Woodhead 1982; cited from earlier work"}, "picrotoxin": {"tested_on": "picrotoxin", "set-up": "key: NP: no protection", "conditions": "mice, cited from earlier work"}, "strychnine": {"tested_on": "strychnine", "set-up": "key to ED50 STR (strychnine): NP: no protection", "conditions": "mice, cited from earlier work"}, "metrazol": {"tested_on": "metrazol", "set-up": "key: NP: no protection", "conditions": "mice, cited from earlier work"}, "[6]": {"tested_on": "premenstrual syndrome, PND, catamenial epilepsy", "conditions": "patients, cited from earlier work"}, "[7]": {"conditions": "[35S]TBPS dissociation, rat cortex, 300 nM alphaxalone, 20 nM a-OH-DHP"}, "[8]": {"conditions": "[35S]TBPS dissociation, rat cortex, Na pentobarbital, 300 nM alphaxalone, 20 nM a-OH-DHP"}, "[9]": {"conditions": "300 nM alphaxalone, 20 nM a-OH-DHP"}, "[10]": {"conditions": "data from Swinyard & Woodhead 1982, NP = no protection"}, "[11]": {"conditions": "data from Swinyard & Woodhead 1982"}, "[12]": {"conditions": "convulsant administered i.v., data from Worms et al. 1982"}}, "note": "Like-named read-outs stand apart in the source and are kept apart here."}
{"compound": "CC(=O)[C@H]1CC[C@H]2[C@@H]3CC[C@H]4C[C@H](O)CC[C@]4(C)[C@H]3CC[C@]12C", "note": "[3α-OH-DHP, 3α-hydroxy-5α-pregnan-20-one]", "values": [{"measurement": "anticonvulsant activity / profile", "setting": "convulsions", "value": "highly effective with a profile similar to that of the benzodiazepine clonazepam"}, {"measurement": "ED50 RR (rotorod)", "setting": "rotorod performance [1]; 10 minutes after injection", "value": "40-100"}, {"measurement": "sedative liability at anticonvulsant doses", "setting": "rotorod performance [1]; rotorod ED50 compared with (+)bicuculline ED50", "value": "low"}, {"measurement": "interaction with pentobarbital in the enhancement of [3H]flunitrazepam binding", "setting": "BZ receptor", "value": "does not interact with pentobarbital"}, {"measurement": "biphasic dissociation mechanism of [35S]TBPS", "setting": "[2]", "value": "absent"}, {"measurement": "t1/2, R (rapidly dissociating component)", "setting": "[2]; [7]", "value": "6.4 ± 1"}, {"measurement": "t1/2, S (slowly dissociating component)", "setting": "[2]; [7]", "value": "76 ± 11"}, {"measurement": "k-1, S (slowly dissociating component)", "setting": "[2]; [8]", "value": "0.011 ± 0.002", "unit": "min⁻¹"}, {"measurement": "Total percentage of specific sites, R", "setting": "[2]; [9]", "value": "35 ± 3", "unit": "%"}, {"measurement": "influence on the dissociation kinetics of [35S]TBPS binding", "setting": "[2]; rat cerebral cortex", "value": "do not influence the dissociation kinetics"}, {"measurement": "Total percentage of specific sites, S", "setting": "[2]; [9]", "value": "68 ± 3", "unit": "%"}, {"measurement": "toxicity, in words", "setting": "Acute lethality (LD50)", "value": "very low toxicity"}]}
{"compound": "C[C@]12CC[C@@H]3c4ccc(O)cc4CC[C@H]3[C@@H]1CC[C@@H]2O", "note": "[17β-ESTRADIOL]", "values": [{"measurement": "+5 μM IC50", "setting": "[3]", "value": "INACTIVE"}, {"measurement": "CONTROL IC50", "setting": "[3]", "value": "INACTIVE"}]}
{"compound": "CC(=O)[C@H]1CC[C@H]2[C@@H]3CC[C@H]4C[C@@H](O)CC[C@]4(C)[C@H]3CC[C@]12C", "note": "[ALLOPREGNANLONE, 5α-PREGNAN-3β-OL- 20-ONE]", "values": [{"measurement": "CONTROL IC50", "setting": "[3]", "value": "INACTIVE"}]}
{"compound": "CC(C)CCC[C@@H](C)[C@H]1CC[C@H]2[C@@H]3CC=C4C[C@@H](O)CC[C@]4(C)[C@H]3CC[C@]12C", "note": "[CHOLESTEROL]", "values": [{"measurement": "+5 μM IC50", "setting": "[3]", "value": "INACTIVE"}, {"measurement": "CONTROL IC50", "setting": "[3]", "value": "INACTIVE"}]}
{"compound": "C[C@]12C[C@H](O)[C@H]3[C@@H](CCC4=CC(=O)CC[C@@]43C)[C@@H]1CC[C@@H]2C(=O)CO", "note": "[CORTICOSTERONE, 4-PREGNEN-11β,21- DIOL-3,20-DIONE]", "values": [{"measurement": "CONTROL IC50", "setting": "[3]", "value": "INACTIVE"}]}
{"compound": "O=C1CN=C(c2ccccc2Cl)c2cc([N+](=O)[O-])ccc2N1", "note": "[Clonazepam]", "values": [{"measurement": "ED50 BIC (bicuculline)", "setting": "[4]; [10]", "value": 0.0086}, {"measurement": "ED50 MES (maximal electroshock)", "setting": "maximal electroshock; [11]", "value": 93}, {"measurement": "ED50 RR (rotorod)", "setting": "rotorod performance [5]", "value": 0.184}, {"measurement": "ED50 PICRO (picrotoxin)", "setting": "picrotoxin; [10]", "value": 0.043}, {"measurement": "ED50 STR (strychnine)", "setting": "strychnine; [10]", "value": "NP"}, {"measurement": "ED50 MTZ (metrazol)", "setting": "metrazol; [10]", "value": 0.009}]}
{"compound": "CC(=O)[C@H]1CC[C@H]2[C@@H]3CC=C4C[C@@H](O)CC[C@]4(C)[C@H]3CC[C@]12C", "note": "[PREGNENOLONE, 5α-PREGNEN-3β-OL- 20-ONE]", "values": [{"measurement": "CONTROL IC50", "setting": "[3]", "value": "INACTIVE"}]}
{"compound": "CC(=O)[C@H]1CC[C@H]2[C@@H]3CCC4=CC(=O)CC[C@]4(C)[C@H]3CC[C@]12C", "note": "[PROGESTERONE]", "values": [{"measurement": "effectiveness in the treatment of PMS, PND and catamenial epilepsy", "setting": "[6]; literature", "value": "not consistently effective"}, {"measurement": "dose-response relationship in the treatment of PMS", "setting": "[6]; Maddocks et al., Dennerstein et al. 1986", "value": "no dose-response relationship exists"}, {"measurement": "potency (and efficacy) at the GBR complex", "setting": "[3]; in vitro, [35S]TBPS binding", "value": "very low potency"}]}
{"compound": "CCCC(C)C1(CC)C(=O)NC(=O)NC1=O", "note": "(stereo not shown) [Pentobarbital]", "values": [{"measurement": "biphasic dissociation mechanism of [35S]TBPS", "setting": "[2]", "value": "induces a biphasic dissociation mechanism"}, {"measurement": "t1/2, R (rapidly dissociating component)", "setting": "[2]; [7]", "value": "4.4 ± 0.3"}, {"measurement": "t1/2, S (slowly dissociating component)", "setting": "[2]; [7]", "value": "38 ± 3"}, {"measurement": "k-1, R (rapidly dissociating component)", "setting": "[2]; [8]", "value": "0.158 ± 0.013", "unit": "min⁻¹"}, {"measurement": "k-1, S (slowly dissociating component)", "setting": "[2]; [8]", "value": "0.0186 ± 0.0015", "unit": "min⁻¹"}, {"measurement": "Total percentage of specific sites, R", "setting": "[2]; [9]", "value": "48 ± 6", "unit": "%"}, {"measurement": "Total percentage of specific sites, S", "setting": "[2]; [9]", "value": "61 ± 6", "unit": "%"}]}
{"compound": "CCC1(c2ccccc2)C(=O)NC(=O)NC1=O", "note": "[Phenobarbital]", "values": [{"measurement": "ED50 BIC (bicuculline)", "setting": "[4]; [10]", "value": 38}, {"measurement": "ED50 MES (maximal electroshock)", "setting": "maximal electroshock; [11]", "value": 22}, {"measurement": "ED50 RR (rotorod)", "setting": "rotorod performance [5]", "value": 69}, {"measurement": "ED50 PICRO (picrotoxin)", "setting": "picrotoxin; [10]", "value": 28}, {"measurement": "ED50 STR (strychnine)", "setting": "strychnine; [10]", "value": 95}, {"measurement": "ED50 MTZ (metrazol)", "setting": "metrazol; [10]", "value": 13}]}
{"compound": "O=C1NC(=O)C(c2ccccc2)(c2ccccc2)N1", "note": "[Phenytoin]", "values": [{"measurement": "ED50 BIC (bicuculline)", "setting": "[4]; [10]", "value": "NP"}, {"measurement": "ED50 PICRO (picrotoxin)", "setting": "picrotoxin; [10]", "value": "NP"}, {"measurement": "Maximum protection (strychnine)", "setting": "strychnine; at 55-100 mg/kg, data from Swinyard & Woodhead 1982", "value": 50, "unit": "%"}, {"measurement": "ED50 MTZ (metrazol)", "setting": "metrazol; [10]", "value": "NP"}]}
{"compound": "NC(=O)CCC/N=C(\\c1ccc(Cl)cc1)c1cc(F)ccc1O", "note": "[Progabide]", "values": [{"measurement": "ED50 BIC (bicuculline)", "setting": "[4]; [12]", "value": 30}, {"measurement": "ED50 MES (maximal electroshock)", "setting": "maximal electroshock; data from Worms et al. 1982", "value": 75}, {"measurement": "ED50 PICRO (picrotoxin)", "setting": "picrotoxin; [12]", "value": 105}, {"measurement": "ED50 STR (strychnine)", "setting": "strychnine; [12]", "value": 75}, {"measurement": "ED50 MTZ (metrazol)", "setting": "metrazol; [12]", "value": 30}]}
{"compound": "CCCC(CCC)C(=O)O", "note": "[Valproate]", "values": [{"measurement": "ED50 BIC (bicuculline)", "setting": "[4]; [10]", "value": 360}, {"measurement": "ED50 MES (maximal electroshock)", "setting": "maximal electroshock; [11]", "value": 272}, {"measurement": "ED50 PICRO (picrotoxin)", "setting": "picrotoxin; [10]", "value": 387}, {"measurement": "ED50 STR (strychnine)", "setting": "strychnine; [10]", "value": 293}, {"measurement": "ED50 MTZ (metrazol)", "setting": "metrazol; [10]", "value": 149}]}
